According to ChEMBL document CHEMBL5365481, “Design, Synthesis, and Activity Evaluation of Novel Dual-Target Inhibitors with Antifungal and Immunoregulatory Properties” (J Med Chem, 2023):
In brackets after ≈: the same amount, converted by molar mass. Activity calls are given as the source filed them. The calls are words filed in the database; no cut-off is given here.

System: Cryptococcus neoformans
Test: Antifungal activity against Cryptococcus neoformans ZKCC 2209 assessed as inhibition of fungal growth incubated for 72 hrs by CLSI based liquid medium microdilution method
Type: functional
Details: not given

Question: How did the MIC50 turn out when `CC(C)c1ccc(C(=O)N2CCC(NC(=O)c3nc(-n4ccnc4)c4ccccc4n3)CC2)cc1` was run?
Answer: The MIC50 was 0.5 mg/L (≈ 1.07 µM).

System: Pichia kudriavzevii
Test: Antifungal activity against Candida krusei ATCC 6258 assessed as inhibition of fungal growth incubated for 72 hrs by CLSI based liquid medium microdilution method
Type: functional
Details: not given

Question: Which MIC50 does the source give for `CC(C)c1ccc(C(=O)N2CCC(NC(=O)c3nc(-n4ccnc4)c4ccccc4n3)CC2)cc1` here?
Answer: Its MIC50 is 0.5 mg/L (≈ 1.07 µM).

System: Candida tropicalis
Test: Antifungal activity against Candida tropicalis ATCC 1369 assessed as inhibition of fungal growth incubated for 72 hrs by CLSI based liquid medium microdilution method
Type: functional
Details: not given

Question: How did the MIC50 turn out when `CC(C)c1ccc(C(=O)N2CCC(NC(=O)c3nc(-n4ccnc4)c4ccccc4n3)CC2)cc1` was run?
Answer: Its MIC50 is 0.25 mg/L (≈ 0.534 µM).

System: Candida albicans
Test: Antifungal activity against fluconazole-resistant Candida albicans CaR assessed as inhibition of fungal growth incubated for 72 hrs by CLSI based liquid medium microdilution method
Type: functional
Details: not given

Question: With `CC(C)c1ccc(C(=O)N2CCC(NC(=O)c3nc(-n4ccnc4)c4ccccc4n3)CC2)cc1` as the compound, how does the MIC50 read?
Answer: Its MIC50 is 4 mg/L (≈ 8.54 µM).

System: Candida albicans
Test: Antifungal activity against fluconazole-resistant Candida albicans 632 assessed as inhibition of fungal growth incubated for 72 hrs by CLSI based liquid medium microdilution method
Type: functional
Details: not given

Question: Which MIC50 does the source give for `CC(C)c1ccc(C(=O)N2CCC(NC(=O)c3nc(-n4ccnc4)c4ccccc4n3)CC2)cc1` here?
Answer: The MIC50 was 1 mg/L (≈ 2.13 µM).

Molecular target: T1, Lanosterol 14-alpha demethylase (Candida albicans (strain SC5314 / ATCC MYA-2876) (Yeast), UniProt P10613)
Test: Inhibition of Candida albicans ATCC SC5314 CYP51 using lanosterol as substrate incubated for 30 mins by HPLC assay
Details: not given

T1 sequence (P10613 whole entry): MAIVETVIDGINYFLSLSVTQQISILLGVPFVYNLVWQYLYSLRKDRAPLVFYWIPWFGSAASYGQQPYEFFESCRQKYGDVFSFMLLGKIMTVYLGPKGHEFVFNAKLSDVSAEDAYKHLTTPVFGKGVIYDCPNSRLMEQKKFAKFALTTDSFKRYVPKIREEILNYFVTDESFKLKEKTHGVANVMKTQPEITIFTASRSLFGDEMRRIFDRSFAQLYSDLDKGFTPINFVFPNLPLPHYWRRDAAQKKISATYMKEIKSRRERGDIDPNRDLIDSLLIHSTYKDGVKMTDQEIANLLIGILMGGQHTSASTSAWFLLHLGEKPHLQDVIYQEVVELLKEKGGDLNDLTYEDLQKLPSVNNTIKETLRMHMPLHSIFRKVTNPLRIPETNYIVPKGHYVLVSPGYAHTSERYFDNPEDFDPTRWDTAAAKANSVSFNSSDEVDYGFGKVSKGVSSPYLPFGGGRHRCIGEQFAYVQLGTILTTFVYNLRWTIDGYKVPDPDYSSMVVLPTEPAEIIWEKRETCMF

Question: How did the IC50 turn out when `CC(C)c1ccc(C(=O)N2CCC(NC(=O)c3nc(-n4ccnc4)c4ccccc4n3)CC2)cc1` was run?
Answer: The IC50 was 0.205 µM.

Molecular target: T1, Lanosterol 14-alpha demethylase
Test: Inhibition of Candida albicans ATCC SC5314 CYP51 assessed as other unknown sterol content at 4 ug/ml measured after 16 hrs by GC-MS analysis (Rvb= 3.82%)
Parameters: scale not given: the % may be the effect or the level left
Details: at 4 µg/mL

Question: Which Activity does the source give for `CC(C)c1ccc(C(=O)N2CCC(NC(=O)c3nc(-n4ccnc4)c4ccccc4n3)CC2)cc1` here?
Answer: Its Activity is 5.58%.

System: Candida albicans
Test: Antifungal activity against Candida albicans ATCC SC5314 assessed as change in osmotic pressure at 1 microM/ml incubated for 48 hrs by absorbance based assay
Type: functional, organism-based
Details: not given

Question: With `CC(C)c1ccc(C(=O)N2CCC(NC(=O)c3nc(-n4ccnc4)c4ccccc4n3)CC2)cc1` as the compound, how does the Activity read?
Answer: Its Activity is “Active”.

System: Candida albicans
Test: Antifungal activity against Candida albicans ATCC SC5314 assessed as change in structural stability at 1 microM/ml incubated for 48 hrs by absorbance based assay
Type: functional, organism-based
Details: not given

Question: For `CC(C)c1ccc(C(=O)N2CCC(NC(=O)c3nc(-n4ccnc4)c4ccccc4n3)CC2)cc1`, which Activity is on record?
Answer: Its Activity is “Active”.

System: Candida albicans
Test: Induction of ROS generation in Candida albicans ATCC SC5314 assessed as increase in fluorescence intensity at 1 microM/ml incubated for 48 hrs by fluorescent microscopy
Type: functional, organism-based
Details: not given

Question: With `CC(C)c1ccc(C(=O)N2CCC(NC(=O)c3nc(-n4ccnc4)c4ccccc4n3)CC2)cc1` as the compound, how does the Activity read?
Answer: The Activity was “Active”.

System: Candida albicans
Test: Induction of mitochondrial membrane depolarization in Candida albicans ATCC SC5314 assessed as polarized cells at 1 microM/ml incubated for 24 hrs by JC-1 staining based flow cytometry assay (reference value: 0.28 +/- 0.02%)
Type: functional
Details: not given

Question: For `CC(C)c1ccc(C(=O)N2CCC(NC(=O)c3nc(-n4ccnc4)c4ccccc4n3)CC2)cc1`, which Activity is on record?
Answer: The Activity was 0.1%.

System: Candida albicans
Test: Induction of mitochondrial membrane depolarization in Candida albicans ATCC SC5314 assessed as normal cells at 1 microM/ml incubated for 24 hrs by JC-1 staining based flow cytometry assay (reference value: 94.4 +/- 1.15%)
Type: functional
Details: not given

Question: How did the Activity turn out when `CC(C)c1ccc(C(=O)N2CCC(NC(=O)c3nc(-n4ccnc4)c4ccccc4n3)CC2)cc1` was run?
Answer: The Activity was 52.3%.

System: Candida albicans
Test: Induction of apoptosis in Candida albicans ATCC SC5314 assessed as increase in blue fluorescence intensity at 1 microM/ml incubated for 48 hrs by Hoechst 33258/PI staining based fluorescence microscopy
Type: functional, organism-based
Details: not given

Question: `CC(C)c1ccc(C(=O)N2CCC(NC(=O)c3nc(-n4ccnc4)c4ccccc4n3)CC2)cc1` was tested. Which Activity did it give?
Answer: Its Activity is “Active”.

System: Candida albicans
Test: Induction of apoptosis in Candida albicans ATCC SC5314 assessed as early apoptotic cells at 1 microM/ml incubated for 48 hrs by Hoechst 33258/PI staining based flow cytometry (Rvb= 5.1 +/- 0.3%)
Type: functional
Details: not given

Question: With `CC(C)c1ccc(C(=O)N2CCC(NC(=O)c3nc(-n4ccnc4)c4ccccc4n3)CC2)cc1` as the compound, how does the Activity read?
Answer: Its Activity is 54.5%.

System: Candida albicans
Test: Induction of apoptosis in Candida albicans ATCC SC5314 assessed as late apoptotic cells at 1 microM/ml incubated for 48 hrs by Hoechst 33258/PI staining based flow cytometry (Rvb= 0.05 +/- 0.01%)
Type: functional
Details: not given

Question: How did the Activity turn out when `CC(C)c1ccc(C(=O)N2CCC(NC(=O)c3nc(-n4ccnc4)c4ccccc4n3)CC2)cc1` was run?
Answer: Its Activity is 0.19%.

System: Candida albicans
Test: Induction of apoptosis in Candida albicans ATCC SC5314 assessed as necrotic cells at 1 microM/ml incubated for 48 hrs by Hoechst 33258/PI staining based flow cytometry (Rvb= 0.03 +/- 0.01%)
Type: functional
Details: not given

Question: How did the Activity turn out when `CC(C)c1ccc(C(=O)N2CCC(NC(=O)c3nc(-n4ccnc4)c4ccccc4n3)CC2)cc1` was run?
Answer: The Activity was 0.03%.
